# Test results as given in ChEMBL document CHEMBL1641528, “Reverse type I inhibitor of Mycobacterium tuberculosis CYP125A1” (Bioorg Med Chem Lett, 2011).
# Target: T1, Steroid C26-monooxygenase (Mycobacterium tuberculosis, UniProt P9WPP1)
# T1 sequence (P9WPP1 whole entry): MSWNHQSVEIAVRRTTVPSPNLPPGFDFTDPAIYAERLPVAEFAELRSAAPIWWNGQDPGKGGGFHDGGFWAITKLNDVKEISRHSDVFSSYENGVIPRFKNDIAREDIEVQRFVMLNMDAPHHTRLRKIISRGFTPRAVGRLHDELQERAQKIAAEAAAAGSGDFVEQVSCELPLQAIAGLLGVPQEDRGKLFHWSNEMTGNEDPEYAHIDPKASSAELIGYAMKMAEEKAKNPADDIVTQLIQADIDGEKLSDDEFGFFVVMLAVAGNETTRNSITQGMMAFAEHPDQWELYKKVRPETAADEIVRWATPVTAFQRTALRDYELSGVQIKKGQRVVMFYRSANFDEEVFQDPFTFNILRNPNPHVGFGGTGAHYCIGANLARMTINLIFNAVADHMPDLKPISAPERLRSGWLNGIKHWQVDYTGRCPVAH
# Experiment: Inhibition of Mycobacterium tuberculosis H37Rv CYP125A1 expressed in Escherichia coli at 200 uM
smiles,measurement,value
CC1CCC(C(=O)NC(Cc2c[nH]c3ccccc23)C(=O)Nc2ccncc2)CC1 (stereo unspecified),inhibition at 200 µM,30%
